Literature values, collected in PMC7559897, “Designed Antimicrobial Peptides Against Trauma-Related Cutaneous Invasive Fungal Wound Infections” (Journal of Fungi, 2020).

What was measured:
[1] = system: S. aureus; details: subinhibitory concentrations, growth at higher concentrations; cited from earlier work
Excerpt: (§1) The rapid destruction of pathogenic cells by dAMPs infers a theoretical reduced likelihood of developing bacterial resistance. However, to confirm this, dAMPs were serially passaged against Candida and against both P. aeruginosa and S. aureus at subinhibitory concentrations to ascertain whether resistance, assessed by growth at higher concentrations, occurs. Resistance was not observed.

[2] = system: P. aeruginosa; details: subinhibitory concentrations, growth at higher concentrations; cited from earlier work
Excerpt: as §1

SMILES | resistance during serial passaging against S. aureus [1] | resistance during serial passaging against P. aeruginosa [2]
CCC[C@@H]1C[C@@H](C(=O)N[C@@H]([C@H]2O[C@H](SC)[C@H](O)[C@@H](O)[C@H]2O)[C@H](C)Cl)N(C)C1 [clindamycin] | strong resistance | –
CNC(C)C1CCC(N)C(OC2C(N)CC(N)C(OC3OCC(C)(O)C(NC)C3O)C2O)O1 (centres unmarked) [Gentamicin] | – | strong resistance
